Source: patent publication US9586986B2, “Substituted 7-deazapurine ribonucleosides for therapeutic uses” (Institute of Organic Chemistry and Biochemistry ASCR, v.v.i., priority 2014, dated 2017)

Tests used:
HCT116 = experiment: Cytostatic/cytotoxic MTT assay, HCT116; assay type: cell-based; details: Homo sapiens, HCT-116; 72 h incubation; read-out: MTT, IC50 HCT116
Source text: (§1) Unless otherwise stated, all cells were purchased from the […] (ATCC). The CCRF-CEM line is derived from T lymphoblastic leukemia, evincing high chemosenzitivity, K562 represent cells from a […] patient sample with bcr-abl translocation, HCT116 is colorectal tumor cell line and its p53 gene knock-down counterpart (HCT116p53−/−, Horizon Discovery, UK) is a model of human cancers with p53 inactivation frequently associated with poor prognosis, A549 cell line is lung adenocarcinoma. The daunorubicin resistant subline of CCRF-CEM cells (CEM-DNR bulk) and paclitaxel resistant subline K562-TAX were selected in our laboratory by cultivation of maternal cell lines in increasing concentrations of daunorubicine or paclitaxel, respectively. The CEM-DNR cells overexpress mrp-1 and mdr-1 genes, while K562-TAX cells overexpress mdr-1 only. Both proteins belong to the family of ABC transporters and are involved in the primary and/or acquired multidrug resistance phenomenon (ref.: Gottesman, M. M.; Fojo, T.; Bates, S. E. Multidrug resistance in cancer: role of ATP-dependent transporters. Nat. Rev. Cancer. 2002, 2, 48-58. (b) Noskova, V.; Dzubak, P.; Kuzmina, G.; Ludkova, A.; Stehlik, D.; Trojanec, R.; Janostakova, A.; Korinkova, G.; Mihal, V.; Hajduch, M. In vitro chemoresistance profile and expression/function of MDR associated proteins in resistant cell lines derived from CCRF-CEM, K562, A549 and MDA MB 231 parental cells. Neoplasma 2002, 49, 418-425). Non-malignant MRC-5 and BJ cells, derived from normal human fibroblasts, were used as controls. The cells were maintained in Nunc/Corning 80 cm^2 plastic tissue culture flasks and cultured in cell culture medium (DMEM/RPMI 1640 with 5 g/L glucose, 2 mM glutamine, 100 U/mL penicillin, 100 µg/mL streptomycin, 10% fetal calf serum, and NaHCO3). Cell suspensions were prepared and diluted according to the particular cell type and the expected target cell density (25,000-30,000 cells/well based on cell growth characteristics). Cells were added by pipette (80 L) into 96-well microtiter plates. Inoculates were allowed a pre-incubation period of 24 h at 37° C. and 5% CO2 for stabilization. Four-fold dilutions, in 20-L aliquots, of the intended test concentration were added to the microtiter plate walls at time zero. All test compound concentrations were examined in duplicate. Incubation of the cells with the test compounds lasted for 72 h at 37° C., in a 5% CO2 atmosphere at 100% humidity. At the end of the incubation period, the cells were assayed using MTT. Aliquots (10 L) of the MTT stock solution (5 mg/ml) were pipetted into each well and incubated for another 1-4 h. After this incubation period the formazan produced was dissolved by addition of 100 µL/well of 10% aq SDS (pH 5.5), followed by a further incubation at 37° C. overnight. The optical density was measured at 540 nm. The IC50 value, the drug concentration inhibiting the cell growth by 50%, was calculated from appropriate dose-response curves.
(§2) In vitro cytotoxic/cytostatic activity final nucleosides 1-5 was initially evaluated against […] cell lines derived from human solid tumors including lung (A549 cells) and colon (HCT116 and HCT116p53−/−) carcinomas, as well as leukemia cell lines (CCRF-CEM, CEM-DNR, K562 and K562-TAX) and, for comparison, non-malignant BJ and MRC-5 fibroblasts. Concentrations inhibiting the cell growth by 50% (IC50) were determined using a quantitative metabolic staining with 3-(4,5-dimethylthiazol-2-yl)-2,5-diphenyltetrazolium bromide (MTT) (ref.: Denizot, F.; Lang, R. Rapid colorimetric assay for cell growth and survival: Modifications to the tetrazolium dye procedure giving improved sensitivity and reliability. J. Immunol. Meth. 1986, 89, 271-277) following a 3-day treatment.
Multidrug resistance is a major therapeutic problem in cancer chemotherapy. […]

HeLa S3 = experiment: XTT cytotoxicity assay, HeLa S3; assay type: cell-based; details: Homo sapiens, HeLa S3; 72 h incubation; read-out: XTT, IC50 HeLa S3
Procedure: (§3) HL-60, Hela S3 and HepG2 cell lines (ATCC) were grown in RPMI-1640 or DMEM medium supplemented with 10% fetal calf serum, […] of streptomycin, 200 U/mL of penicillin G and 4 mM glutamine in a humidified atmosphere containing 5% CO2 at 37° C. Sensitivity of these cell lines to the synthesized compounds was assessed with the use of XTT cell proliferation kit II (Roche Diagnostics GmbH, Mannheim, Germany) according to the manufacturer's instructions. Briefly, cells were seeded in a 96-well plate at a density of 10,000 cells per well (90 μL). After 24 h, 10 μL of the tested compounds were added to the culture media at desired concentration range and incubated for 72 h. After that 50 μL of the XTT solution was added (1 mg/mL XTT+0.383 mg/mL N-methyl dibenzopyrazine methyl sulfate). The absorbance was recorded at 495 nm following a 2 h-incubation with the dye. IC50 values were determined by non-linear regression method using GraphPad Prism version 5.00 for Windows (GraphPad Software, La Jolla, Calif., USA).
(§4) In addition, the anti-proliferative effect was tested against a human T-lymphoblastic leukemia line CCRF-CEM, promyelocytic leukemia HL-60 and cervical carcinoma HeLa S3 growing in liquid suspension. Cell viability was determined following a 3-day incubation using 2,3-bis-(2-methoxy-4-nitro-5-sulfophenyl)-2H-tetrazolium-5-carboxanilide (XTT) assay (ref.: Scudiero, D. A.; Shoemaker, R. H.; Paull, K. D.; Monks, A.; Tierney, S.; Nofziger, T. H.; Currens, M. J.; Seniff, D.; Boyd M. R. Evaluation of a Soluble Tetrazolium/Formazan Assay for Cell Growth and Drug Sensitivity in Culture Using Human and Other Tumor Cell Lines. Cancer Res. 1988, 48, 4827-4833).

BJ = experiment: Cytostatic/cytotoxic MTT assay, BJ fibroblasts; assay type: cell-based; details: Homo sapiens, non-malignant fibroblasts, 72 h, read-out: MTT, IC50 BJ
Source text: as §1, §2

HepG2 = experiment: XTT cytotoxicity assay, HepG2; assay type: cell-based; details: Homo sapiens, HepG2; 72 h incubation; read-out: XTT, IC50 HepG2
Procedure: as §3

HL60 = experiment: XTT cytotoxicity assay, HL-60; assay type: cell-based; details: Homo sapiens, HL-60; 72 h incubation; read-out: XTT, IC50 HL60
Procedure: as §3, §4

SMILES	IC50 (HCT116) [nM]	melting point [°C]	IC50 (HeLa S3) [nM]	IC50 (BJ) [nM]	IC50 (HepG2) [nM]	IC50 (HL60) [nM]
CSc1ncnc2c1c(I)cn2[C@@H]1O[C@H](CO)[C@@H](O)[C@H]1O [Compound 2h, 5-Iodo-4-methylsulfanyl-7-(β-D-ribofuranosyl)-7H-pyrrolo[2,3-d]pyrimidine]	> 20000	217 to 219	250	86100	> 20000	50
COc1ncnc2c1c(-c1ccoc1)cn2[C@@H]1O[C@H](CO)[C@@H](O)[C@H]1O [Compound 1b, 5-(Furan-3-yl)-4-methoxy-7-(β-D-ribofuranosyl)-7H-pyrrolo[2,3-d]pyrimidine]	110	190 to 192	1790	28800	290	150
CNc1ncnc2c1c(-c1cccs1)cn2[C@@H]1O[C@H](CO)[C@@H](O)[C@H]1O [Compound 3c, 4-Methylamino-7-(β-D-ribofuranosyl)-5-(thiophen-2-yl)-7H-pyrrolo[2,3-d]pyrimidine]	> 20000	183 to 185	> 20000	> 100000	> 20000	> 20000
CNc1ncnc2c1c(-c1cc3ccccc3o1)cn2[C@@H]1O[C@H](CO)[C@@H](O)[C@H]1O [Compound 3f, 5-(Benzofuran-2-yl)-4-methylamino-7-(β-D-ribofuranosyl)-7H-pyrrolo[2,3-d]pyrimidine]	> 20000	203 to 206	> 20000	75600	> 20000	8950
COc1ncnc2c1c(-c1ccsc1)cn2[C@@H]1O[C@H](CO)[C@@H](O)[C@H]1O [Compound 1d, 4-Methoxy-7-(β-D-ribofuranosyl)-5-(thiophen-3-yl)-7H-pyrrolo[2,3-d]pyrimidine]	120	169 to 171	3350	64300	430	130
Cc1ncnc2c1c(-c1ccco1)cn2[C@@H]1O[C@H](CO)[C@@H](O)[C@H]1O [Compound 5a, 5-(Furan-2-yl)-4-methyl-7-(β-D-ribofuranosyl)-7H-pyrrolo[2,3-d]pyrimidine]	40	–	1330	70	300	210
COc1ncnc2c1c(-c1ccco1)cn2[C@@H]1O[C@H](CO)[C@@H](O)[C@H]1O [Compound 1a, 5-(Furan-2-yl)-4-methoxy-7-(β-D-ribofuranosyl)-7H-pyrrolo[2,3-d]pyrimidine]	40	–	1020	430	300	100
Cc1ncnc2c1c(-c1ccsc1)cn2[C@@H]1O[C@H](CO)[C@@H](O)[C@H]1O [Compound 5d, 4-Methyl-7-(β-D-ribofuranosyl)-5-(thiophen-3-yl)-7H-pyrrolo[2,3-d]pyrimidine]	460	–	14300	96900	4720	350
